Data from patent publication US20260376293A1, “METHODS FOR STUDYING GPR158 PHARMACOLOGY AND IDENTIFICATION OF ITS LIGANDS” (UNIVERSITY OF FLORIDA RESEARCH FOUNDATION, INCORPORATED, priority 2022, published 2026).

Target: T1, GPR158 Y269A mutant (Homo sapiens, UniProt Q5T848, Y269A)
T1 sequence (Q5T848 24-1215 Y269A): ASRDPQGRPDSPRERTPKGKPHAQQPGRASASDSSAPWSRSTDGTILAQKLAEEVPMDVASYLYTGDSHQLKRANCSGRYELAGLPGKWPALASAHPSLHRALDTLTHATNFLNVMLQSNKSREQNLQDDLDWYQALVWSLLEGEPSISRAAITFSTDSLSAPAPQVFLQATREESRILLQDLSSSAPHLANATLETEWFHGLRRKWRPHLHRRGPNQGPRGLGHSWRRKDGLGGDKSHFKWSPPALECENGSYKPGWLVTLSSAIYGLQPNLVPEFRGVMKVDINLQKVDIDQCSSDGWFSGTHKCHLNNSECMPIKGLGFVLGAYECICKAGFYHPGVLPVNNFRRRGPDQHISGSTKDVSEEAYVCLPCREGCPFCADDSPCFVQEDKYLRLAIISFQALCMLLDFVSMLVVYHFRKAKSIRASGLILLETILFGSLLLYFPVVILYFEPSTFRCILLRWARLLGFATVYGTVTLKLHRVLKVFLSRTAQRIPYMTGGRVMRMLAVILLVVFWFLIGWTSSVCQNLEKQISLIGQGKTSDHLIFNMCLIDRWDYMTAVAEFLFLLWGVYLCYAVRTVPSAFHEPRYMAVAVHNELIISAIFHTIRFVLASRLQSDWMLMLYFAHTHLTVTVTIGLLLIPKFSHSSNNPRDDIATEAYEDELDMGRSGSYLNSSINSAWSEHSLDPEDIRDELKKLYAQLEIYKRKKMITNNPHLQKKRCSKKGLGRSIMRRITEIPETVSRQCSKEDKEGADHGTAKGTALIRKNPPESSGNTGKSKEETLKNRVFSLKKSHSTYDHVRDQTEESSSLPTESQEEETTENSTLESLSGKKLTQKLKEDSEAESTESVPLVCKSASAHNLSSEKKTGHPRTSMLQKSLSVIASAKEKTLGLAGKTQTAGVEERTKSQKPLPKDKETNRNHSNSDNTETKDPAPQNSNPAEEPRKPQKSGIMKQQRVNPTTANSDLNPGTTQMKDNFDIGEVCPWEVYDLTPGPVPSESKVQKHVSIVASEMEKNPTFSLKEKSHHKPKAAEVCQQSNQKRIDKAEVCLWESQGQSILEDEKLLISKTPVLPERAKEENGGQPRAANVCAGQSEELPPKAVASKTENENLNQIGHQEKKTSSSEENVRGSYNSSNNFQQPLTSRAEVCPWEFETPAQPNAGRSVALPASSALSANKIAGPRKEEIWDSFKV
Assay: Radioligand binding assay on GPR158 mutant Y269A
Excerpt: FIGS. 11A-11G. Probing Cache domain of GPR158 as a ligand binding site A) Computational docking of glycine into putative ligand binding pocket on GPR158 Cache domain. Glycine and directly interacting residues are shown as sticks. Hydrogen bonds and van der Waals interactions are shown as dotted lines. B) Diagram showing interactions in the docked model of glycine against GPR158 Cache domain. Hydrogen bonds are shown as dashed lines, van der Waals interactions are shown as intersecting semicircles, and the secondary structural context of Ser266 and Tyr269 is shown as an arc. Dagger indicates a residue implicated in glycine binding in 11A. C) Radioligand binding assay of ^3H-glycine in cells expressing GPR158 mutants. Data shown mean±s.e.m. of 3 independent experiments, *p<0.05, ns=p>0.05 one-way ANOVA. D) Functional evaluation of GPR158 mutants in GAP BRET assay. Error bars are mean±s.e.m. of 3 independent experiments in triplicate. *p<0.05, **p<0.01, ***p<0.001, ****p<0.0001, ns=p>0.05, two-way ANOVA Columns with no fill (Ctrl), columns with angled-line fill (Glycine) E) Quantification of glycine inhibitory effect on kGAP normalized to the effect seen with WT receptor. […]
Whole cell binding was performed using cDNA of GPR158-venus or each GPR158-venus mutant or empty pcDNA3.1+ for ctrl cells. […] Finally radioactivity was measured using the liquid scintillation analyzer Tri-Carb 4910 TR.

In the case of `NCC(=O)O` [^3H-glycine, [^3H]-glycine], the “[^3H]-glycine binding” value is reported as “near complete loss”.
